In EP4559919A1, “TRICYCLIC-CONTAINING MACROCYCLIC COMPOUND AND USE THEREOF” (Medshine Discovery Inc., priority 2022, dated 2024):

What was measured:
ALK(G1202R/L1196M) [1] = target: T1, ALK(G1202R/L1196M) (Homo sapiens, UniProt Q9UM73, G1202R/L1196M); assay: In vitro kinase inhibitory activity assay, Experimental method 1 (ADP-Glo); type: biochemical; settings: final ATP 50 µM, read-out: Kinase half maximal inhibitory concentration IC50 ALK^G1202R/L1196M
T1 construct: purchased Carna
Description: (§1) The kinase inhibitory activity assays of the compounds against ALK, ALK^L1196M, ALK^G1202R, ALK^G1202R/L1196M, ROS1, and TRKB were conducted at Wuhan Heyan Biotechnology Co., Ltd. or Hefei PreceDo Biotechnology Co., Ltd.
(§2) Experimental materials: ALK Active, ALK(L1196M) Active, ALK(G1202R) Active, and ALK(G1202R/L1196M) Active were purchased from Carna; SRC Substrate was purchased from SignalChem; IGF1R tide was purchased from SignalChem; ADP-Glo Kinase Assay was purchased from Promega; Kinase assay buffer III was purchased from SignalChem; and Nivo multimode plate reader (PerkinElmer).
(§3) Each concentration of the compounds was further diluted 20-fold using 1X kinase buffer to prepare compound working solutions containing 5% DMSO. 1 µL of each concentration gradient working solution was added to a microplate, with duplicate wells set for each concentration. 2 µL of ALK enzyme (15 ng per well) and 2 µL of a mixture of substrate and ATP (25 µM ATP, 0.5 µg/µL SRC Substrate) were added to the microplate. […] The reaction system was placed at 25°C for 1 hour. After the reaction, 5 µL of ADP-Glo reagent was added to each well and reacted at 25°C for another 40 minutes. After the reaction, 10 µL of kinase detection reagent was added to each well and reacted at 25°C for 30 minutes. Chemiluminescence was then measured using the PerkinElmer Nivo multimode plate reader with an integration time of 0.5 seconds.
ALK (G1202R/L1196M) kinase inhibition assay method: The preparation method for the working solution of the test compound was the same as for the ALK kinase. […] The subsequent steps were the same as for ALK kinase.
(§4) The IC50 value could then be derived by performing a curve fit using a four-parameter logistic model (obtained using the "log(inhibitor) vs. response -- Variable slope" mode in GraphPad Prism).

TRKB [2] = target: T2, TRKB (Homo sapiens, UniProt Q16620); assay: as above; type: biochemical; settings: read-out: Kinase half maximal inhibitory concentration IC50 TRKB
T2 construct: purchased Carna
T2 sequence (Q16620 32-822): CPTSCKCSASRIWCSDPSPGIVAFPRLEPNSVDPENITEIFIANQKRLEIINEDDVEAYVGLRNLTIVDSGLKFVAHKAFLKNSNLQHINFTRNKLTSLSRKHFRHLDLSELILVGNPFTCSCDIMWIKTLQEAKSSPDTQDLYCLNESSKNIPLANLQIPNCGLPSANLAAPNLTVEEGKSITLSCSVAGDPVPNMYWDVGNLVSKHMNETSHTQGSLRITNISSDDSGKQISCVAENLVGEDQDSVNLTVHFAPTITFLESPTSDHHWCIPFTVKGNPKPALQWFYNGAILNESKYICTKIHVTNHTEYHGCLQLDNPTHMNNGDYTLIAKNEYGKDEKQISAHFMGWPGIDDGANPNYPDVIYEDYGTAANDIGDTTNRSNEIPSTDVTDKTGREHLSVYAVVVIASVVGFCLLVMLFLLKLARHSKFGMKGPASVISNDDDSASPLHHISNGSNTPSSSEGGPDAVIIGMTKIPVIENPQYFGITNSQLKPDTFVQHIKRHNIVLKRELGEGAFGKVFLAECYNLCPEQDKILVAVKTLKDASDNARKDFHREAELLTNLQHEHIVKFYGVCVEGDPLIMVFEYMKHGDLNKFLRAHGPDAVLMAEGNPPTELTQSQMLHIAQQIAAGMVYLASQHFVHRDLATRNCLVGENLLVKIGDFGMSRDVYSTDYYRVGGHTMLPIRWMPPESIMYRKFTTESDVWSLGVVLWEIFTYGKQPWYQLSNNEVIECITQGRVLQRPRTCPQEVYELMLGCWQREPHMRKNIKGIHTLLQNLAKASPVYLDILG
Description: as §1, §2, §3
TRKB kinase inhibition assay method: The preparation method for the working solution of the test compound was the same as for the ALK kinase. 2 µL of TRKB (0.5 ng per well) and 4 µL of a mixture of substrate and ATP (5 µM ATP, 0.5 µM SRC Substrate) were added to the microplate. […] The subsequent steps were the same as for ALK kinase.
as §4

ALK(G1202R) = target: T3, ALK(G1202R) (Homo sapiens, UniProt Q9UM73, G1202R); assay: as above; type: biochemical; settings: final ATP 50 µM, read-out: Kinase half maximal inhibitory concentration IC50 ALK^G1202R
T3 construct: purchased Carna
T3 sequence (Q9UM73 19-1620 G1202R): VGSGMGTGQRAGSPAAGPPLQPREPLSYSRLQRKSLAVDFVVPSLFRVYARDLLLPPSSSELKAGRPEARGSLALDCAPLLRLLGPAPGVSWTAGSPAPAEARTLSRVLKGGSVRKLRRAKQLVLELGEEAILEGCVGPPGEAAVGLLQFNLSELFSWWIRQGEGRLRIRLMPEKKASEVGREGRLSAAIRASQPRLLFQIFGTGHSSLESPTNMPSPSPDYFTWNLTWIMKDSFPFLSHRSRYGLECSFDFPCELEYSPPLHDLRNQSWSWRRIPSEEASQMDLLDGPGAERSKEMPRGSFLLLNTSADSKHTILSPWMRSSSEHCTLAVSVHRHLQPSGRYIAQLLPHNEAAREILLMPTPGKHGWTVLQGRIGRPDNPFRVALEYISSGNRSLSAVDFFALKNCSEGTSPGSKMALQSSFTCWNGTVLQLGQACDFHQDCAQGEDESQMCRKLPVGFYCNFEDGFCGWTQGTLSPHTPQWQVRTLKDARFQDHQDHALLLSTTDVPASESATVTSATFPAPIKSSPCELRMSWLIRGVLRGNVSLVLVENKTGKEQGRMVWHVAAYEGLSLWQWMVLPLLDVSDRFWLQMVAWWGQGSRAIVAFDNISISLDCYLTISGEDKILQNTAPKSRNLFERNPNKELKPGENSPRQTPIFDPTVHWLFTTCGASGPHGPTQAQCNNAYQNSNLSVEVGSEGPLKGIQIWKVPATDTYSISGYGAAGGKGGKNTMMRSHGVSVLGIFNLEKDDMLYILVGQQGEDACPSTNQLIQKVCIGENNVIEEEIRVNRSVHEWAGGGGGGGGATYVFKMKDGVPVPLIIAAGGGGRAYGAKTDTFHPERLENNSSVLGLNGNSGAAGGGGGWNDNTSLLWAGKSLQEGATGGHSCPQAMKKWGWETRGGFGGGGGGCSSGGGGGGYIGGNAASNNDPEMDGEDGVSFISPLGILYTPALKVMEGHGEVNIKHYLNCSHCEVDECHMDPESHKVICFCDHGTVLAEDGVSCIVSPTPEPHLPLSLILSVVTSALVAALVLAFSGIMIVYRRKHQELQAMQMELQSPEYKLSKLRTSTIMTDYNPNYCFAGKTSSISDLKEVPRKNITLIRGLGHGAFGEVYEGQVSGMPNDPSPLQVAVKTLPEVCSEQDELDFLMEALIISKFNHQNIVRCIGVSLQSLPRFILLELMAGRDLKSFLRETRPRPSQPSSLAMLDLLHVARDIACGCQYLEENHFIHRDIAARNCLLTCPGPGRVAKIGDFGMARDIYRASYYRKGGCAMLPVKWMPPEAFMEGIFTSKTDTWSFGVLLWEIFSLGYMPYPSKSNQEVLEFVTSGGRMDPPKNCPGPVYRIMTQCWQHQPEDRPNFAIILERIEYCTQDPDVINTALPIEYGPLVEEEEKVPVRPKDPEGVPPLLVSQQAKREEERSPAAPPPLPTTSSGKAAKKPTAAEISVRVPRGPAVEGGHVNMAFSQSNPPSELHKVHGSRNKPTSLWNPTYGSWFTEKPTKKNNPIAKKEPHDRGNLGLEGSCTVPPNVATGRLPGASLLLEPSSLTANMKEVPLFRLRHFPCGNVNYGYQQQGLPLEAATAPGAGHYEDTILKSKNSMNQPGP
Description: as §1, §2, §3
ALK (G1202R) kinase inhibition assay method: The preparation method for the working solution of the test compound was the same as for the ALK kinase. […] The subsequent steps were the same as for ALK kinase.
as §4

ROS1 = ROS1 (Homo sapiens, UniProt P08922); assay: as above; type: biochemical; settings: read-out: Kinase half maximal inhibitory concentration IC50 ROS1
Description: as §1, §2
as §3, with “After the reaction, 10 µL of kinase detection reagent was added to each well and reacted at 25°C for 30 minutes.” left out, “seconds. […]” for “seconds.”

ALK(G1202R/L1196M) [3] = target: T1, ALK(G1202R/L1196M); assay: In vitro kinase inhibitory activity assay, Experimental method 2 (ADP-Glo); type: biochemical; settings: Experimental method 2; ATP 5.0 µM, substrate IGF1; read-out: Kinase half maximal inhibitory concentration IC50 ALK^G1202R/L1196M
Description: as §1
(§5) Experimental materials: ALK (G1202R/L1196M) Active and TRKB were purchased from Carna; IGF1 was purchased from GenScript; PolyE4Y1 was purchased from SIGMA; ADP-Glo™ Reagent was purchased from Promega; ATP was purchased from Promega; Kinase Detection Reagent was purchased from Promega; microplate reader ( PerkinElmer).
Reaction system: ALK(G1202R/L1196M) reaction concentration 8.63 nM, ATP concentration 5.0 µM, substrate IGF1 concentration 0.2 µg/µL. ALK(G1202R/L1196M) kinase buffer was 40 mM Tris-HCl (pH 7.5) + 20 mM magnesium chloride + 0.1 mg/mL BSA + 50 µM DTT.
(§6) ALK(G1202R/L1196M) and TRKB detection method: 2 µL of kinase and 1 µL of compound were added to a 384-well plate; 2 µL of substrate/ATP mixture was added and incubated at room temperature in the dark for 60 minutes; 5 µL of ADP-Glo™ reagent was added and incubated at room temperature for 40 minutes; 10 µL of kinase detection reagent was added and incubated at room temperature for 30 minutes; the plate was read on a microplate reader, and luminescence was recorded (integration time set to 0.5 seconds).
as §4

TRKB [4] = target: T2, TRKB; assay: as above; type: biochemical; settings: Experimental method 2; ATP 5.0 µM, substrate PolyE4Y1; read-out: Kinase half maximal inhibitory concentration IC50 TRKB
Description: as §1, §5
TRKB reaction concentration 4.47 nM, ATP concentration 5.0 µM, substrate PolyE4Y1 concentration 0.2 µg/µL. TRKB kinase buffer was 40 mM Tris-HCl (pH 7.5) + 20 mM magnesium chloride + 2.5 mM manganese chloride + 0.1mg/mL BSA+ 50 µM DTT.
as §6, §4

[5] = tested on: Ba/F3-EML4-ALK-G1202R/L1196M; assay: Anti-proliferative activity test on Ba/F3 cell lines (CellTiter-Glo); type: cell-based; settings: for IC50: Ba/F3 EML4-ALK-G1202R-L1196M, 72 hours, read-out: Half maximal inhibitory concentration IC50 for cells Ba/F3-EML4-ALK-G1202R/L1196 M
Description: (§7) • (1) Cell culture: The cell lines were cultured in an incubator at 37°C with 5% CO2. Regular passaging was performed, and cells in the logarithmic growth phase were selected for plating; • (2) Preparation of compound storage plate: The test compounds were prepared into a 10 mM solution with DMSO (Stock Con.); The compounds were then prepared into a 1 mM solution with DMSO (Work Con.); 1 µL of the stock solution was mixed with 9 µL of DMSO to prepare a 10 µL work solution. • (3) Preparation of 1000× compound storage plate (tube): The compounds were 3-fold serially diluted from […] to the lowest concentration, for a total of 8 concentrations; • (4) Preparation of 20× compound working solution: 98 µL of cell culture medium was added to a flat-bottomed 96-well transparent drug plate. From the 1000× compound storage plate, 2 µL of the compound was pipetted into the cell culture medium in the 96-well transparent drug plate. In the solvent control, 2 µL of DMSO was added. After the compound or DMSO was added, the mixture was homogenized using a pipette. • (5) Cells were stained with trypan blue and viable cells were counted to ensure a cell viability of 90% or more. The cell concentration was adjusted to an appropriate concentration; • (6) 95 µL of cell suspension (2000 cells/well) was added to each well of the compound assay cell plate, and cell-free culture medium containing 0.1% DMSO was added to the Min control wells; • (7) Administration in the compound assay cell plate: 5 µL of 20× compound working solution was added to the cell culture plate, 5 µL of DMSO-cell culture medium mixture was added to the Max control wells, and the final concentration of DMSO was 0.1%; • (8) The culture plate was then incubated in an incubator at 37°C with 5% CO2 for 72 hours; • (9) The following operations were conducted in accordance with the instructions of the Promega CellTiter-Glo Luminescent Cell Viability Assay Kit (Promega-G7573): CellTiter-Glo buffer was thawed and brought to room temperature; CellTiter-Glo substrate was brought to room temperature; CellTiter-Glo buffer was added to a bottle of CellTiter-Glo substrate to dissolve the substrate, thereby preparing CellTiter-Glo working solution; The mixture was slowly vortexed and shaken to be fully dissolved; The cell culture plate was removed and allowed to equilibrate to room temperature for 10 minutes; 50 µL (equal to half the volume of cell culture medium in each well) of CellTiter-Glo working solution was added to each well; The culture plate was shaken on an orbital shaker for 2 minutes to induce cell lysis; The plate was then left at room temperature for 10 minutes to stabilize the luminescent signal; The luminescent signal was detected using a SpectraMax Paradigm plate reader; Cell viability assay was conducted using CellTiter-Glo luminescence method.
(§8) Data analysis: The corresponding […] value (RLU) for each well was obtained from SpectraMax Paradigm readings. […] The inhibition rates corresponding to compounds at different concentrations were calculated in Excel, and the inhibition rate curves were plotted using GraphPad Prism software to calculate relevant parameters, including the maximum and minimum inhibition rates of the cells and the IC50 value.

Ba/F3-TEL-TRKB = assay: as above; type: cell-based; settings: Mus musculus, BaF3; 72 hours; read-out: Half maximal inhibitory concentration IC50 for cells Ba/F3-TEL-TRKB
Description: as §7, §8

[6] = In vivo pharmacokinetic testing in mice; set-up: species or system male CD-1 mice; settings: mouse, IV, 0.5 mg/kg, plasma
Description: The objective was to study the pharmacokinetic behavior of the compounds of the present disclosure in mice, using male CD-1 mice aged 7 to 9 weeks as test animals. The concentrations of the compounds in plasma at different time points after a single intravenous injection (IV) and oral gavage (PO) administration of the compound were determined using LC/MS/MS.
Two groups of healthy mice (fasted) were administered the compounds via intravenous injection (IV) and oral gavage (PO), with 2 mice in each group.
The test compounds were mixed with the solvent, vortexed, and sonicated to prepare a clear solution with a concentration of 0.5 mg/mL and a pH of 3.3-3.6. The intravenous injection dose for the mice was 1.0 mg/kg. […] The test compounds were mixed with the solvent, vortexed, and sonicated to prepare a homogeneous suspension with particles at a concentration of 0.5 mg/mL and a pH of 6.8-7.0. The oral gavage dose for the mice was 5.0 mg/kg.
The test compound was mixed with the solvent, vortexed, and sonicated to prepare a clear solution with a concentration of 1.0 mg/mL. The intravenous injection dose for the mice was 1.0 mg/kg. […] The test compound was mixed with the solvent, vortexed, and sonicated to prepare a homogeneous suspension with particles at a concentration of 0.5 mg/mL. The oral gavage dose for the mice was 5.0 mg/kg.
The test compounds were mixed with the solvent, vortexed, and sonicated to prepare a clear solution with a concentration of 0.1 mg/mL. The intravenous injection dose for the mice was 0.5 mg/kg. […] The test compound was mixed with the solvent, vortexed, and sonicated to prepare a homogeneous suspension with particles at a concentration of 0.5 mg/mL and a pH of 7.08. The oral gavage dose for the mice was 5.0 mg/kg. After administration, the whole blood was collected at the time points of 0.083 hours, 0.25 hours, 0.5 hours, 1.0 hour, 2.0 hours, 4.0 hours, 8.0 hours, 12.0 hours, and 24.0 hours. Plasma was prepared from the whole blood and analyzed for drug concentration by LC-MS/MS. The pharmacokinetic parameters were calculated using Phoenix WinNonlin 6.3.

CYP2C9 = target: T4, CYP2C9 (Homo sapiens, UniProt P11712); assay: Cytochrome P450 isozyme inhibitory activity test (human liver microsomes); type: in vitro ADME; settings: human liver microsomes 0.1 mg/mL; probe substrate Diclofenac
T4 construct: Mixed human liver microsomes (HLM) purchased from Corning Inc; tissue Corning Inc; host or cells: pooled human liver microsomes
T4 sequence (P11712 whole entry): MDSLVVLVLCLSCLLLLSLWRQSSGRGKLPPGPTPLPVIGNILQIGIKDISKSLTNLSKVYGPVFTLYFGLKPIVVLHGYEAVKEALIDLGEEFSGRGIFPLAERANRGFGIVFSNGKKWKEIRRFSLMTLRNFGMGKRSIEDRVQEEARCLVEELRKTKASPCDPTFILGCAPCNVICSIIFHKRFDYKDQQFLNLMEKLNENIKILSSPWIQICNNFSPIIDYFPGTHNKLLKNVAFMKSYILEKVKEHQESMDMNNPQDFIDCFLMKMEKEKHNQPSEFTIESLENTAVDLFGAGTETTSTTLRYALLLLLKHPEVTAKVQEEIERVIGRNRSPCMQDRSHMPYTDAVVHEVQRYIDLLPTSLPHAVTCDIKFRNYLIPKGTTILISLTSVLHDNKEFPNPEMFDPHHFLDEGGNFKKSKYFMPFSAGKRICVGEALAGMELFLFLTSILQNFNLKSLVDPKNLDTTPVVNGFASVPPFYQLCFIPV
Description: To test the inhibitory activity of the compounds of the present disclosure on different subtypes of human liver microsomal cytochrome P450 isozymes.
Mixed human liver microsomes (HLM) purchased from Corning Inc. (Steuben, New York, USA); Diclofenac as the probe substrate (10 µM); Sulfaphenazole as the positive control inhibitor; 4'-Hydroxydiclofenac as the metabolite
Preparation of test system working solution: Human liver microsomes (HLM): HLM stock solution at 20.0 mg/mL, working solution at 0.2 mg/mL, final concentration at 0.1 mg/mL; Potassium phosphate buffer: 100 mM; Cofactor working solution: Magnesium chloride, NADP (nicotinamide adenine dinucleotide phosphate), G6P (glucose-6-phosphate), G6PDH (glucose-6-phosphate dehydrogenase), and phosphate buffer or magnesium chloride, NADPH (reduced nicotinamide adenine dinucleotide phosphate) powder, and potassium phosphate buffer; prepared into cofactor working solution at appropriate ratios;
Stop solution: Isotope-labeled 4'-hydroxydiclofenac-d4 stock solution prepared in methanol, then prepared into stop solution using acetonitrile.
In the substrate-free control sample wells of the reaction plate, 100 µL of a mixture of human liver microsome and potassium phosphate buffer was added. At the zero-time point sample wells, 98 µL of a mixture of the human liver microsome and potassium phosphate buffer was added. In the no-inhibitor control (NIC), test compound, and positive control inhibitor sample wells of the reaction plate, 100 µL of a mixture of the human liver microsome and substrate was added. From the dilution plate, 2 µL of blank solvent, test compound working solution (three parallels), and positive control inhibitor working solution (two parallels) were added to the reaction plate. The reaction plate was preheated at 37.0°C for 10 minutes. […] The concentration of specific metabolites in the samples was detected using the liquid chromatography-tandem mass spectrometry (LC-MS/MS) method. […] The IC50 values were calculated using a three-parameter or four-parameter inverse log equation.

CYP3A4-M = target: T5, CYP3A4-M (Homo sapiens, UniProt P08684); assay: as above; type: in vitro ADME; settings: human liver microsomes 0.1 mg/mL
T5 construct: Mixed human liver microsomes (HLM) purchased from Corning Inc; tissue Corning Inc; host or cells: pooled human liver microsomes
T5 sequence (P08684 whole entry): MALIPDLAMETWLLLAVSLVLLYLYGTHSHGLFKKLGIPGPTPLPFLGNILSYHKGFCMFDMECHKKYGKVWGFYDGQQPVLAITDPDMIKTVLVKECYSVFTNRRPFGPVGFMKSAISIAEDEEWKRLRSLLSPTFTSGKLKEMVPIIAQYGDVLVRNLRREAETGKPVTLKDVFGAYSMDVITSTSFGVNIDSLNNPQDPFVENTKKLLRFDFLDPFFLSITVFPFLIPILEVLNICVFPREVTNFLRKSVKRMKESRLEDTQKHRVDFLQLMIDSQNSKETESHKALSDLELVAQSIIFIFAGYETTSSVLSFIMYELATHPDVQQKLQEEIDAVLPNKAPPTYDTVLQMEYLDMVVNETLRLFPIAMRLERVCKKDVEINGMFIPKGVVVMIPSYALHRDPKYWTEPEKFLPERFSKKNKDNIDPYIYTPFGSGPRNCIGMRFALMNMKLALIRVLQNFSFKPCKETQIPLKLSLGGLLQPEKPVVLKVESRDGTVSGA

T1 sequence (Q9UM73 19-1620 L1196M/G1202R): as the sequence (Q9UM73 19-1620 G1202R) above, with L1178M counted along it

| SMILES | IC50 (ALK(G1202R/L1196M) [1]) [nM] | IC50 (TRKB [2]) [nM] | IC50 (ALK(G1202R)) [nM] | IC50 (ROS1) [nM] | IC50 (ALK(G1202R/L1196M) [3]) [nM] | IC50 (TRKB [4]) [nM] | IC50 [5] [nM] | selectivity: inhibition against ALK-mutant cells versus TRKB phenotypic cells ([5]; stronger inhibition of ALK-mutant cells, relatively weaker of TRKB phenotypic cells) | IC50 (Ba/F3-TEL-TRKB) [nM] | Vd ([6]; read-out: Apparent volume of distribution Vd) [L/kg] | AUC(0-t) ([6]; read-out: Area under the curve AUC0-last) [µM·h] | half-life ([6]; read-out: Half-life T1/2 (converted)) [h] | IC50 (CYP2C9) [nM] | IC50 (CYP3A4-M) [nM] |
| --- | --- | --- | --- | --- | --- | --- | --- | --- | --- | --- | --- | --- | --- | --- |
| CON=C1NC(C)(C)COc2ncc(F)cc2CN2c3nc4c1cnn4cc3OC[C@H]2C(F)F [Compound 005] | 5.2 | 1.2 | 3.8 | 0.6 | – | – | – | – | – | – | – | – | – | – |
| C#Cc1nn2cc3c4nc2c1C(=O)NC(C)(C)COc1ccc(F)cc1CN4[C@H](C(F)F)CO3 [Compound 019] | – | – | – | – | 0.9 | 2.5 | 1.7 | excellent selectivity | 3.5 | 0.274 | 15.2 | 1.28 | – | – |
| N#Cc1nn2cc3c4nc2c1C(=O)NC1(CCC1)COc1ccc(F)cc1CN4[C@H](C(F)F)CO3 [Compound 022] | – | – | – | – | 7.8 | 24.7 | 4.2 | – | 2.3 | – | – | – | 460 | > 50000 |
| N#Cc1nn2cc3c4nc2c1C(=O)N[C@H]1C[C@H](C1)Oc1ccc(F)cc1CN4[C@H](C(F)F)CO3 [Compound 024] | – | – | – | – | 2.3 | 5.3 | 1.6 | – | 0.8 | – | – | – | 2120 | > 50000 |
